pIC50: −log10 of the molar value.
Columns and labels:
[1] = tested on: sandwich-cultured human hepatocytes; assay: Cholestatic drug-induced liver injury (c-DILI) assay; type: cell-based; conditions: 30 µM, 24 h, in the presence or absence of a toxic concentration of bile acids
Procedure: This study was conducted at BioIVT (Durham, […]). Sandwich-cultured human hepatocytes (SCHH) were prepared on BioCoat 96-well Cell Culture Plate from Corning (Cat # 354407) using Transporter Certified™ cryopreserved hepatocytes from BioIVT (Cat # M00995-TCERT) and maintained in freshly prepared QualGro™ Hepatocyte Culture Medium. […] Following 24 h of exposure, the culture plates were harvested for adenosine triphosphate (ATP) and lactate dehydrogenase (LDH) analysis. Cellular ATP content was determined using the CellTiter-Glo® Assay Kit and LDH leakage into the culture media was determined using the CytoTox-ONE® Assay Kit, both obtained from Promega, per manufacturer’s instructions.

[2] = tested on: bleomycin-induced macrophage activation; assay: Intratracheal bleomycin, therapeutic dosing: BAL macrophage size and IL-1β; type: in vivo, mouse; conditions: 3 mg/kg oral once a day from day 3 after bleomycin
Procedure: To further support our ex vivo macrophage findings, we used a therapeutic paradigm where mice were challenged in vivo with intratracheal instillation of bleomycin. […] The fluid was centrifuged and supernatant and cell fractions analyzed.
Mice were dosed until day 14 at which point BAL fluid was collected. BAL was centrifuged and cells were transferred to culture plates and incubated overnight at 37 °C. Plates were spun down and supernatant and cell pellet analysed separately. Supernatant was analyzed for IL-1β as described for mouse above. The cell pellet for each condition was plated at 3 × 10^3 cells/well in black clear bottom 96-well plates. After settling, cells were fixed in formalin and immunostained against CD68 and detected with a donkey anti-rat Alexa 488 conjugated antibody. Image acquisition and analysis was performed using a Nikon A1R confocal microscope and NIS Elements software.

human LPAR6 = target: T1, human LPAR6 (Homo sapiens, UniProt P43657); assay: LPA-induced calcium mobilization in transiently transfected HEK293T cells; type: cell-based; conditions: 3 h preincubation; LPA at EC80 13 µM
T1 construct: host or cells: HEK293T
T1 sequence (P43657 1-344): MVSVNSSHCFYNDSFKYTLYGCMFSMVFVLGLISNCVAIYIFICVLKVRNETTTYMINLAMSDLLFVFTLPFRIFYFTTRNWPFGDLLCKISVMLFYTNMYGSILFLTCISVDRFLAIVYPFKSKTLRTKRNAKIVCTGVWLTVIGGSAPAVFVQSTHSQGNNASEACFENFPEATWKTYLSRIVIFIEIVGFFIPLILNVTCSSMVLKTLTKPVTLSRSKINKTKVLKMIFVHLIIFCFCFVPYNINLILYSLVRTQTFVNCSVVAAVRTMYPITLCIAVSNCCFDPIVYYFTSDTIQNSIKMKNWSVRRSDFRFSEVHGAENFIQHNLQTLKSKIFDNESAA
Procedure: (§1) We had previously assessed selectivity against LPAR2 and 3 [11]. […] Human LPAR1-6 plasmids were each transiently transfected into HEK293T cells and the EC80 (effective concentration producing 80% maximal effect) for LPA activation empirically determined. Selectivity was then tested in a concentration response paradigm using a 3 h preincubation followed by LPA-induced calcium mobilization.
(§2) Plasmids containing human LPAR1-6 were obtained from Origene (Rockville, MD) and maxiprepped at Eton Biosciences (San Diego, CA). Transfection mix was prepared by adding Fugene 6 transfection mix to serum free media and 0.1 µg plasmid. After a 20 m incubation, HEK293T cells (ATCC, Manassas VA) were lifted with Accutase and added to the Fugene mix at a final concentration of 0.5 × 10^4 cells/well. Cells were then plated on black clear bottom 96-well plates and incubated overnight in a 37 °C, 5% CO2 incubator. […] During the last hour of incubation, media was removed and replaced with Fluo-4 NW calcium assay dye prepared as per manufacturer’s recommendations in assay buffer. Agonist plates containing LPA were prepared for individual receptor subytpes using their respective EC80. Calcium mobilization was measured as per manufacturer’s directions on a Flexstation 3 (Molecular Devices, San Jose, CA).

human LPAR3 = target: T2, human LPAR3 (Homo sapiens, UniProt Q9UBY5); assay: as above; type: cell-based; conditions: 3 h preincubation; LPA at EC80 10 µM
T2 construct: host or cells: HEK293T
T2 sequence (Q9UBY5 1-353): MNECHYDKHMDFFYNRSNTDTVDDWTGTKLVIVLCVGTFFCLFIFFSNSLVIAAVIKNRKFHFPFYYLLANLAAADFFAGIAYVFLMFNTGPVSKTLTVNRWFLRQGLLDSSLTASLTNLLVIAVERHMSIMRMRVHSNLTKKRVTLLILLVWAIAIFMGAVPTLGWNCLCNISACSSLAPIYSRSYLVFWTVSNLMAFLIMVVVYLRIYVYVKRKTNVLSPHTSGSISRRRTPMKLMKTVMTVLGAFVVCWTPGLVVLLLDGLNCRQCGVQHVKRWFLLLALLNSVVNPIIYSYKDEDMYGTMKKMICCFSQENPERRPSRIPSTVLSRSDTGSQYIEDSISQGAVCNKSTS
Procedure: as §1, §2

[3] = tested on: bleomycin-induced lung fibrosis; assay: Intratracheal bleomycin mouse model (14 day, prophylactic dosing); type: in vivo; conditions: for body weight improvement over bleomycin alone: day 14
Procedure: Intratracheal instillation of bleomycin results in acute alveolar cell damage, inflammation, and subsequent tissue remodeling and is a widely used preclinical IPF model.
Female C57BL6/N mice 8–10 weeks old were obtained from Charles River. […] Bleomycin was administered by oropharyngeal instillation 23 h after first dose (Day 0). On the day of instillation, bleomycin was prepared by diluting a 15 unit (U) vial to 1.5 U/mL with sterile saline. Mice were lightly anesthetized with isoflurane (5% in 100% O2) and administered sterile saline or bleomycin (3.0 U/kg) via oropharyngeal instillation at a dose volume of 2 mL/kg (2 µL/g). Mice were returned to their cages and monitored daily for the duration of each experiment. […] Fourteen days after bleomycin instillation, mice were euthanized via isoflurane anaesthesia, cardiac blood collected into K3EDTA tubes and stored on wet ice, and BALF and lungs were isolated for subsequent analysis of biochemical and histopathological indices of lung injury, inflammation, and fibrosis. To do this, mice were intubated with a 20-gauge luer stub adapter connected to a 3-way stopcock fitted with two 3 mL syringes (the delivery syringe was pre-filled with 1.5 mL phosphate buffered saline (PBS), and the receiving syringe was empty). Lungs were lavaged with PBS (2 × 0.75 mL) to obtain BALF. BALF was placed on wet ice until centrifugation to separate from cells. Lungs were dissected and placed into 1 mL 6 M HCl for collagen analysis using the Quickzyme total collagen assay kit according to manufacturer’s instructions. At the end of the experimental collection, BALF was centrifuged (300 x g, 10 min, 4 °C) to isolate BALF from the cell pellet. The cell pellet was discarded and the BALF aliquoted and stored at −80 °C for biomarker analysis. For the analysis, n = 8 biological replicates were analyzed in singlicate for various biomarkers (total protein, TGFβ1, TIMP-1, procollagen) according to manufacturer’s recommended instructions.

## COc1ccc(NC(=O)N(c2ccccc2C(C)C)C2CCC(C(=O)O)CC2)c(OC(F)F)n1 (centres unmarked) [PIPE-791]
[1]
  ATP content (cell viability): nor a decrease in ATP content
  lactate dehydrogenase leakage (cell death): neither an appreciable increase in lactate dehydrogenase
[2]
  reduction of IL-1β in BAL supernatant: 69.2%
[2]; BAL cells
  reduction of macrophage cell size (CD68 area): 56%
Human LPAR6
  pIC50: 6.09
Human LPAR3
  pIC50: 6.40
[3]; 0.03 mg/kg oral once a day
  body weight improvement over bleomycin alone: 28%
[3]; 0.03 mg/kg oral once a day, p = 0.077
  lung hydroxyproline (collagen): trending decrease in collagen, the values did not reach statistical significance
[3]; 0.3 mg/kg oral once a day
  reduction in lung hydroxyproline: 41%
  body weight improvement over bleomycin alone: 41%
[3]; 3 mg/kg oral once a day
  reduction in BAL fluid TGFβ vs bleomycin/vehicle: 51%
  reduction in BAL fluid TIMP1 vs bleomycin/vehicle: 57%
  reduction in BAL fluid procollagen vs bleomycin/vehicle: 65%
  reduction in lung hydroxyproline: 39%
  body weight improvement over bleomycin alone: 38%
[3]; 0.03, 0.3, 3 mg/kg groups, 3 mice died in bleomycin/vehicle group
  survival: no mice lost
[3]; prophylactic, at 0.3 mg/kg (discussion)
  maximal inhibition of lung collagen: 40%
